Data published in US20250382640A1, “LIPID NANOPARTICLES FOR DELIVERY OF NUCLEIC ACIDS” (Juno Therapeutics, Inc., priority 2022, published 2025).
“Also recorded” adds a separate entry of the source.

Assays:
[1] = DNA loading into LNPs, Quant-iT PicoGreen dsDNA assay; type: physicochemical; settings: Example 4a, Table E14 formulations
Protocol: The resulting LNPs were sized by dynamic light scattering (DLS) before being stored overnight at 5 Celsius. Following overnight incubation, the LNPs were again sized by DLS, and then sterile filtered in a biosafety cabinet. LNPs having an Z-average particle size greater than 200 nm in diameter were filtered using a 0.45 µm filter. All other LNPs were filtered using a 0.2 µm filter. Following sterile filtration, the LNPs were sized a final time by DLS. The LNPs were also assessed for DNA loading, as determined by the Quant-iT™ PicoGreen™ dsDNA broad range DNA assay. Percent DNA loading was calculated as 100×(signal of sample with Triton-X−signal of sample in DI water)/(signal of sample with Triton-X).

[2] = system: primary human T cells; experiment: Transient transfection of activated primary human T cells with DNA LNPs, GFP expression by flow cytometry; type: cell-based
Protocol: Separate compositions of CD4+ and CD8+ cells were selected by immunoaffinity-based enrichment from isolated PBMCs from leukapheresis samples from four healthy human donors. The selected cell compositions were cryopreserved, subsequently thawed and combined in culture at a 1:1 ratio of viable CD4+ to viable CD8+ cells. The combined CD4+ and CD8+ cell composition was then incubated for 48 hours with anti-CD3/CD28 beads (1:1 cell-to-bead ratio) in media containing recombinant IL-2, IL-7, and IL-15 to activate (stimulate) the T cells. […] The cells were cultured in media supplemented with 1 μg/mL of apolipoprotein E4 (ApoE4) to support cellular uptake of the LNPs.
Cells were analyzed by flow cytometry 24 to 48 hours after transfection to determine cell viability and transient GFP expression. Cell viability was determined by quantification of dead cells using SYTOX™ blue dead cell stain and GFP expression was determined via flow cytometry.
Formulations as described in Table E4 were used to transiently transfect human T cells at a 6.0 μg/mL DNA dosing concentration (final concentration with cells), and the effects of varying the described parameters on cell viability and transfection efficiency of T cells were assessed. A combined CD4+ and CD8+ T cell composition was generated and activated substantially as described in Example 2, and incubated in media with […] ApoE4 and LNPs generated from the various formulations for approximately 24 hours at 37° Celsius, 5% CO2, to allow for transfection. Following incubation, cells were assessed for viability and transfection efficiency as described in Example 2. Increasing ionizable lipid mass fraction percentage decreased transfection efficiency (p<0.05; left panel of FIGS. 6A), while there was no statistically significant effect of helper lipid or PEG lipid mass fraction percentage on transfection efficiency (middle and right panels, respectively, of FIG. 6A).

Structure (SMILES)	DNA loading [1]	transfection efficiency ([2]; Example 4a, alkyl chain linker length, Table E14 formulations)	transfection efficiency ([2]; Example 4b, heterocyclic headgroup, Table E16 formulations)	transient transfection in T cells (GFP expression) ([2]; F9 and F9A formulations with various ionizable lipids, 24 hours)
CCCCC/C=C\C/C=C\CCCCCCCCC1(CCCCCCCC/C=C\C/C=C\CCCCC)OCC(CCN(C)C)O1 (stereo not shown) [DLin-KC2-DMA, 2,2-dilinoleyl-4-dimethylaminoethyl-[1,3]-dioxolane]	consistently high DNA loading	higher transfection efficiency compared to the other lipids; also recorded: highest transfection efficiency	highest	–
CCCCC/C=C\C/C=C\CCCCCCCC(=O)OCCCCN(CCCCOC(=O)CCCCCCC/C=C\C/C=C\CCCCC)CCCCC1NC(=O)C(CCCCN(CCCCOC(=O)CCCCCCC/C=C\C/C=C\CCCCC)CCCCOC(=O)CCCCCCC/C=C\C/C=C\CCCCC)NC1=O (stereo not shown) [OF-C4-Deg-Lin]	–	–	–	highest levels of transient transfection
